Reference: ChEMBL document CHEMBL2385043, “Recent advances in malaria drug discovery” (Bioorg Med Chem Lett, 2013)

Key:
Plasmodium falciparum [1] = test: Antiplasmodial activity against Plasmodium falciparum; type: functional, organism-based
[2] = Toxicity in po dosed Sprague-Dawley rat; type: organism-based; conditions: in vivo
Plasmodium = test: Antimalarial activity against Plasmodium infected in mouse; type: functional
Plasmodium falciparum [3] = test: Antiplasmodial activity against drug-sensitive Plasmodium falciparum 3D7 after 24 hrs by [3H]-hypoxanthine incorporation assay; type: functional, organism-based
Plasmodium falciparum [4] = test: Antiplasmodial activity against Plasmodium falciparum relative to artesunate; type: functional
Plasmodium berghei [5] = test: Antimalarial activity against Plasmodium berghei infected in Swiss albino mouse assessed as reduction in parasitemia after 4 days by microscopic analysis relative to artesunate; type: functional
Plasmodium berghei [6] = test: Antimalarial activity against Plasmodium berghei infected in Swiss albino mouse assessed as reduction in parasitemia after 4 days by microscopic analysis; type: functional; conditions: 96 h
Plasmodium falciparum [7] = test: Antiplasmodial activity against NITD609-resistant Plasmodium falciparum Dd2 infected in human erythrocytes after 48 hrs by [3H]-hypoxanthine incorporation assay; type: functional, organism-based
[8] = Half life in human; type: ADME, organism-based; conditions: in vivo
Plasmodium falciparum [9] = test: Antiplasmodial activity against chloroquine-resistant Plasmodium falciparum K1 infected in human erythrocytes after 48 hrs by [3H]-hypoxanthine incorporation assay; type: functional, organism-based
Plasmodium falciparum [10] = test: Antimalarial activity against Plasmodium falciparum infected in po dosed mouse assessed as decrease in parasitemia administered on day 1 postinfection measured on day 3 by FACS analysis; type: functional
Plasmodium berghei [11] = test: Antimalarial activity against Plasmodium berghei infected in po dosed mouse; type: functional
Plasmodium falciparum [12] = test: Antiplasmodial activity against multidrug-resistant Plasmodium falciparum W2 infected in human erythrocytes after 24 hrs by [3H]-hypoxanthine incorporation assay
Plasmodium falciparum [13] = test: Antimalarial activity against Plasmodium falciparum infected in SCID mouse; type: functional
[14] = Half life in po dosed rat; conditions: in vivo
[15] = Oral bioavailability in rat; type: ADME, organism-based; conditions: in vivo
Plasmodium falciparum [16] = test: Antiplasmodial activity against drug-sensitive Plasmodium falciparum 3D7; type: functional, organism-based
Plasmodium falciparum [17] = test: Antiplasmodial activity against liver stage of drug-sensitive Plasmodium falciparum 3D7; type: functional, organism-based; conditions: 3D7, Liver
Lysine--tRNA ligase = Lysine--tRNA ligase (Homo sapiens, UniProt Q15046); test: Inhibition of human recombinant cytoplasmic lysyl-tRNA synthetase
Plasmodium falciparum [18] = test: Antiplasmodial activity against liver stage of drug-sensitive Plasmodium falciparum D10; type: functional, organism-based
Plasmodium falciparum [19] = test: Antiplasmodial activity against chloroquine and antifolate-sensitive Plasmodium falciparum TM4 after 24 hrs by [3H]-hypoxanthine incorporation assay; type: functional, organism-based
[20] = Selectivity ratio of IC50 for human cytochrome b-c1 complex to IC50 for Plasmodium falciparum cytochrome b-c1 complex
Plasmodium falciparum [21] = test: Antiplasmodial activity against sexual blood stage of Plasmodium falciparum; type: functional, organism-based
[22] = Inhibition of Plasmodium falciparum cytochrome b-c1 complex
Plasmodium falciparum [23] = test: Antiplasmodial activity against asexual blood stage of Plasmodium falciparum; type: functional, organism-based
Plasmodium yoelii = test: Antiplasmodial activity against liver stage of Plasmodium yoelii; type: functional, organism-based
[24] = Terminal half life in human; type: ADME, organism-based; conditions: in vivo, read-out: beta t1/2 (converted)
Plasmodium falciparum [25] = test: Antiplasmodial activity against multidrug-resistant Plasmodium falciparum W2 infected in human erythrocytes; type: functional, organism-based
Plasmodium falciparum [26] = test: Antiplasmodial activity against Plasmodium falciparum by SYBR Green staining-based fluorescence assay; type: functional, organism-based
Plasmodium yoelii yoelii = test: Antimalarial activity against Plasmodium yoelii yoelii infected in mouse; type: functional
[27] = Half life in Sprague-Dawley rat at 3 mg/kg, iv; type: ADME, organism-based; parameters: dose 3 mg/kg, route intravenous; conditions: in vivo
Plasmodium falciparum [28] = test: Antiplasmodial activity against multidrug-resistant Plasmodium falciparum W2 infected in human erythrocytes after 72 hrs by ELISA; type: functional, organism-based; conditions: W2, 72 h
Plasmodium falciparum [29] = test: Antimalarial activity against multidrug-resistant Plasmodium falciparum W2 infected in ip dosed mouse assessed as reduction in parasitemia administered on day 64 post-infection; type: functional; conditions: 1536 h
Plasmodium falciparum [30] = test: Antiplasmodial activity against Plasmodium falciparum VS/1 expressing DHFR quadruple mutation by [3H]-hypoxanthine incorporation assay; type: functional, organism-based
Plasmodium falciparum [31] = test: Antiplasmodial activity against wild type Plasmodium falciparum TM4 by [3H]-hypoxanthine incorporation assay; conditions: TM4, 3 h

Chain of Lysine--tRNA ligase (Q15046 whole entry): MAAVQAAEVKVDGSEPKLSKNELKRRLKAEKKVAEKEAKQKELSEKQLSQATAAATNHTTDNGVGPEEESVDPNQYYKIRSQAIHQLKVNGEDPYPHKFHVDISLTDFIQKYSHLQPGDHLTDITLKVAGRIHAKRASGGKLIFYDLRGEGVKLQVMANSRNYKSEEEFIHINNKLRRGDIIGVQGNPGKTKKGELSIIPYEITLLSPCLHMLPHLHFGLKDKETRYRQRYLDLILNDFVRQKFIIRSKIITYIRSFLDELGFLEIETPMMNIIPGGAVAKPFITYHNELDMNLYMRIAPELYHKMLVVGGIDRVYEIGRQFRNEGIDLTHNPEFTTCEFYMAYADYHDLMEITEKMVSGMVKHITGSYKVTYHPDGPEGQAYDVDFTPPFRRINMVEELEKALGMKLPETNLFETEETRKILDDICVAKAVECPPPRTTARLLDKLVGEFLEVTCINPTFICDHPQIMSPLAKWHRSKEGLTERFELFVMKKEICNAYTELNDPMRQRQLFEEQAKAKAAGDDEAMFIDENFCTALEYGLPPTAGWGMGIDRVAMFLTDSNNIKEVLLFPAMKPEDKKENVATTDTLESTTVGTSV

Structure (SMILES): c1cc([C@H]2CC[C@]3(CC2)OO[C@]2(O3)C3CC4CC(C3)CC2C4)ccc1OCCN1CCOCC1 [ARTEFENOMEL]
- EC50 (Plasmodium falciparum [1]): 3.4 nM
- MTD [2]: 300 mg/kg
- ED50 (Plasmodium): 20 mg/kg

Structure (SMILES): C[C@H]1[C@H](N2CCS(=O)(=O)CC2)O[C@@H]2O[C@@]3(C)CC[C@H]4[C@H](C)CC[C@@H]1[C@@]24OO3 [ARTEMIFONE]
- EC50 (Plasmodium falciparum [3]): 0.88 nM
- fold change (FC) (Plasmodium falciparum [4]): 10
- fold change (FC) (Plasmodium berghei [5]): 4
- ED50 (Plasmodium berghei [6]): 2 mg/kg/day

Structure (SMILES): C[C@@H]1CC[C@H]2[C@@H](C)C(=O)O[C@@H]3O[C@@]4(C)CC[C@@H]1[C@]32OO4 [ARTEMISININ]
- EC50 (Plasmodium falciparum [7]): 15 nM

Structure (SMILES): C[C@H]1[C@@H](O)O[C@@H]2O[C@@]3(C)CC[C@H]4[C@H](C)CC[C@@H]1[C@@]24OO3 [ARTENIMOL]
- half-life [8]: 1 h

Structure (SMILES): C[C@H]1[C@H](OC(=O)CCC(=O)O)O[C@@H]2O[C@@]3(C)CC[C@H]4[C@H](C)CC[C@@H]1[C@@]24OO3 [ARTESUNATE]
- EC50 (Plasmodium falciparum [9]): 3.1 nM
- ED50 (Plasmodium falciparum [10]): 6.2 mg/kg/day
- half-life [8]: 1 h

Structure (SMILES): CCN(CC)CCCC(C)Nc1ccnc2cc(Cl)ccc12 (stereo not drawn) [CHLOROQUINE]
- ED50 (Plasmodium berghei [11]): 1.9 mg/kg
- EC50 (Plasmodium falciparum [12]): 49 nM
- ED90 (Plasmodium falciparum [13]): 6.4 mg/kg/day

Structure (SMILES): C[C@H]1Cc2c([nH]c3cc(Cl)c(F)cc23)[C@@]2(N1)C(=O)Nc1ccc(Cl)cc12 [CIPARGAMIN]
- ED50 (Plasmodium berghei [11]): 1.2 mg/kg
- half-life [14]: 27 h
- bioavailability [15]: 100%
- EC50 (Plasmodium falciparum [16]): 0.7 nM

Structure (SMILES): C[C@H]1CCC[C@H](C[C@H]2Cc3cc(O)cc(O)c3C(=O)O2)O1 [CLADOSPORIN]
- EC50 (Plasmodium falciparum [17]): 45 nM
- IC50 (Lysine--tRNA ligase): > 20000 nM
- EC50 (Plasmodium falciparum [18]): 90 nM

Structure (SMILES): CC1(C)N=C(N)N=C(N)N1c1ccc(Cl)cc1 [CYCLOGUANIL]
- EC50 (Plasmodium falciparum [19]): 38 nM

Structure (SMILES): CCCCCCCCCCOc1cc2c(O)c(C(=O)OCC)cnc2cc1OCC [DECOQUINATE]
- Ratio IC50 [20]: > 5000
- EC50 (Plasmodium falciparum [21]): 36 nM
- IC50 [22]: 2 nM
- EC50 (Plasmodium falciparum [23]): 10 nM
- EC50 (Plasmodium yoelii): 2.6 nM

Structure (SMILES): CCCCN(CCCC)CC(O)c1cc(Cl)cc2c1-c1ccc(Cl)cc1/C2=C/c1ccc(Cl)cc1 (stereo not drawn) [LUMEFANTRINE]
- half-life [24]: 72 h
- EC50 (Plasmodium falciparum [25]): 0.45 nM

Structure (SMILES): C[C@@]12OC(=O)[C@]1([C@@H](O)[C@@H]1C=CCCC1)NC(=O)[C@@H]2CCCl [MARIZOMIB]
- EC50 (Plasmodium falciparum [26]): 11 nM
- ED50 (Plasmodium yoelii yoelii): 0.25 mg/kg/day

Structure (SMILES): CC(C)(N)CNC(=O)C[C@H]1CC[C@]2(CC1)OO[C@]1(O2)C2CC3CC(C2)CC1C3 [OZ277]
- half-life [27]: 1 h

Structure (SMILES): Clc1ccc2c(N3CCN(CCCN4CCN(c5ccnc6cc(Cl)ccc56)CC4)CC3)ccnc2c1 [PIPERAQUINE]
- EC50 (Plasmodium falciparum [28]): 12.5 nM
- ED50 (Plasmodium falciparum [29]): 4.5 mg/kg
- half-life [8]: 192 h

Structure (SMILES): CCc1nc(N)nc(N)c1-c1ccc(Cl)cc1 [PYRIMETHAMINE]
- IC50 (Plasmodium falciparum [30]): > 100000 nM
- IC50 (Plasmodium falciparum [31]): 58 nM
